Values of other authors in publication PMC9353746 (ACS chemical neuroscience, 2021).

Molecular target: T1, recombinant A1 adenosine receptor (human) (Homo sapiens, UniProt P30542)
T1 sequence (P30542 1-326): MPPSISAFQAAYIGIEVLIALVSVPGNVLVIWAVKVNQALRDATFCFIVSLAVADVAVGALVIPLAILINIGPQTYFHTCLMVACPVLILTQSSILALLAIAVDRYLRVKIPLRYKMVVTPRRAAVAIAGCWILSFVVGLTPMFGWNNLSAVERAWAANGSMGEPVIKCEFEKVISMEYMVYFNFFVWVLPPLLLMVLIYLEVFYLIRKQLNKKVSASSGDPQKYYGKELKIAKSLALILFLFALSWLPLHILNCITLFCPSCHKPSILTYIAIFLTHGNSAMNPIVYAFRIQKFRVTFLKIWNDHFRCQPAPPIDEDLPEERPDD
Conditions: read-out: Ki, A1R

Ki: 0.49 nM
Structure (SMILES): COc1cccc(-c2c(C#N)c(N)nc(SCc3cccc(C)n3)c2C#N)c1 [[^11C]MMPD, 2-amino-4-(3-(methoxy-^11C)phenyl)-6-(((6-methylpyridin-2-yl)methyl)thio)pyridine-3,5-dicarbonitrile]
